In US9586962B2, “Disubstituted octahydropyrrolo [3,4-C] pyrroles as orexin receptor modulators” (Janssen Pharmaceutica NV, priority 2011, dated 2017) one finds Kb data, which are given here for 30 compounds.

The target of this test is human orexin 2 receptor (Homo sapiens (Human), UniProt O43614). Nature of the test: Human orexin 2 receptor Ca2+ mobilization assay (FLIPR, PFSK cells, orexin B 100 nM). Type of test: cell-based. The settings on record: modified Cheng-Prusoff correction, read-out: OR 2 Kb. Here is the method: Human Orexin 2 Receptor Ca^2+ Mobilization Assay
human orexin 2 receptor, sequence (O43614 whole entry): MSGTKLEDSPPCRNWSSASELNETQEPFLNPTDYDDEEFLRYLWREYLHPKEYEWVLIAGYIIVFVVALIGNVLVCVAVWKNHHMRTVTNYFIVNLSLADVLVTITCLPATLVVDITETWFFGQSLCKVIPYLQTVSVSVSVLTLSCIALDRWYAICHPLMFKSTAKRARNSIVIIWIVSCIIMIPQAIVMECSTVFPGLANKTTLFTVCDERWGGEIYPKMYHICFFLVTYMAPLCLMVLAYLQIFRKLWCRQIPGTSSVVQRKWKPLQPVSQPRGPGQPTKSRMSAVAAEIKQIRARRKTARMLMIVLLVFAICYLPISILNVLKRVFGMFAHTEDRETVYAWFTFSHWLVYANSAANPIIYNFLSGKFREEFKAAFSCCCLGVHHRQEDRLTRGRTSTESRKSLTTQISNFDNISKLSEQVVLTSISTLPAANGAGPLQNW
Cells were seeded on to 96-well Packard viewplates at a density of 50,000 cells/well and incubated overnight at 37° C., 5% CO2. The cells were dye-loaded with 4 μM Ca^2+ dye Fluo-3AM in serum-free DMEM/F-12 with 2.5 mM probenecid and incubated at 37° C., 5% CO2 for one hour. Cells were pre-incubated with compounds (diluted in DMEM/F-12) for 30 minutes before agonist (orexin B, 100 nM) stimulation. Ligand-induced Ca^2+ release was measured using a Fluorometric Imaging Plate Reader (FLIPR, Molecular Devices, Sunnyvale, Calif.). Functional responses were measured as peak fluorescence intensity minus basal. The concentration of agonist that produced a half-maximal response is represented by the EC50 value. Antagonistic potency values were converted to apparent pKB values using a modified Cheng-Prusoff correction. Apparent pKB=−log IC50/1+[conc agonist/EC50]. Data are expressed as mean±S.E.M, the designation of NT means not tested.
Background: Calcium flux is commonly read through the fluorescence of an indicator in the cells.
With `Cc1cnc(C)c(N2CC3CN(C(=O)c4ccccc4-c4cccs4)CC3C2)n1` (stereo not drawn) [Example 63, 2-(3,6-Dimethylpyrazin-2-yl)-5-[(2-thiophen-2-ylphenyl)carbonyl]octahydro-pyrrolo[3,4-c]pyrrole], the Kb stood at 20 nM. The result for `COc1cc(OC)nc(N2CC3CN(C(=O)c4c(F)cccc4-c4ncccn4)CC3C2)n1` (stereo not drawn) [Example 68, 2-(4,6-Dimethoxypyrimidin-2-yl)-5-[(2-fluoro-6-pyrimidin-2-ylphenyl)carbonyl]octahydropyrrolo[3,4-c]pyrrole] reads 16 nM. In the case of `Cc1cc(C)nc(N2CC3CN(C(=O)c4ccccc4-c4ccccn4)CC3C2)n1` (stereo not drawn) [Example 69, 2-(4,6-Dimethylpyrimidin-2-yl)-5-[(2-pyridin-2-ylphenyl)carbonyl]octahydro-pyrrolo[3,4-c]pyrrole] it was 8 nM; in that of `COc1cc(OC)nc(N2CC3CN(C(=O)c4ccccc4-c4ccccn4)CC3C2)n1` (stereo not drawn) [Example 70, 2-(4,6-Dimethoxypyrimidin-2-yl)-5-[(2-pyridin-2-ylphenyl)carbonyl]octahydro-pyrrolo[3,4-c]pyrrole], 40 nM; in that of `Cc1cc(C)nc(N2CC3CN(C(=O)c4c(F)cccc4-c4ncccn4)CC3C2)n1` (stereo not drawn) [Example 73, 2-(4,6-Dimethylpyrimidin-2-yl)-5-[(2-fluoro-6-pyrimidin-2-ylphenyl)carbonyl]octahydropyrrolo[3,4-c]pyrrole], 5 nM.

Regarding `Cc1cc(C)nc(N2CC3CN(C(=O)c4cc(F)ccc4-c4ncccn4)CC3C2)n1` (stereo not drawn) [Example 74, 2-(4,6-Dimethylpyrimidin-2-yl)-5-[(5-fluoro-2-pyrimidin-2-ylphenyl)carbonyl]octahydropyrrolo[3,4-c]pyrrole], the Kb was 10 nM. In the case of `CCOc1ccc2ccccc2c1C(=O)N1CC2CN(c3nc(C)cc(C)n3)CC2C1` (stereo not drawn) [Example 77, 2-(4,6-Dimethylpyrimidin-2-yl)-5-[(2-ethoxynaphthalen-1-yl)carbonyl]octahydro-pyrrolo[3,4-c]pyrrole] it was 16 nM; in that of `COc1cc(OC)nc(N2CC3CN(C(=O)c4ccccc4-n4nccn4)CC3C2)n1` (stereo not drawn) [Example 84, 2-(4,6-Dimethoxypyrimidin-2-yl)-5-{[2-(2H-1,2,3-triazol-2-yl)phenyl]carbonyl}octahydropyrrolo[3,4-c]pyrrole], 25 nM; in that of `O=C(c1ccccc1-c1nnc[nH]1)N1CC2CN(c3cnc4ccccc4n3)CC2C1` (stereo not drawn) [Example 85, 2-[5-{[2-(4H-1,2,4-Triazol-3-yl)phenyl]carbonyl}hexahydropyrrolo[3,4-c]pyrrol-2(1H)-yl]quinoxaline], 63 nM. For the compound `CCOc1ccccc1C(=O)N1CC2CN(c3nc(C)cc(C)n3)CC2C1` (stereo not drawn) [Example 88, 2-(4,6-Dimethylpyrimidin-2-yl)-5-[(2-ethoxyphenyl)carbonyl]octahydropyrrolo[3,4-c]pyrrole], the Kb came out at 25 nM.

Consider `Cc1cc(C)nc(N2CC3CN(C(=O)c4ccc(F)c5ccccc45)CC3C2)n1` (stereo not drawn) [Example 90, 2-(4,6-Dimethylpyrimidin-2-yl)-5-[(4-fluoronaphthalen-1-yl)carbonyl]octahydro-pyrrolo[3,4-c]pyrrole], for which the Kb was found to be 25 nM. The result for `Cc1cc(C)nc(N2CC3CN(C(=O)c4cccc5ccccc45)CC3C2)n1` (stereo not drawn) [Example 93, 2-(4,6-Dimethylpyrimidin-2-yl)-5-(naphthalen-1-ylcarbonyl)octahydropyrrolo[3,4-c]pyrrole] reads 40 nM. In the case of `Cc1cc(N2CC3CN(C(=O)c4ccccc4-c4nnc[nH]4)CC3C2)nc(C(F)(F)F)n1` (stereo not drawn) [Example 96, 2-[6-Methyl-2-(trifluoromethyl)pyrimidin-4-yl]-5-{[2-(4H-1,2,4-triazol-3-yl)phenyl]carbonyl}octahydropyrrolo[3,4-c]pyrrole], the Kb came to 50 nM.

Take `Cc1cc(N2CC3CN(C(=O)c4ccccc4-n4nccn4)CC3C2)nc(C(F)(F)F)n1` (stereo not drawn) [Example 97, 2-[6-Methyl-2-(trifluoromethyl)pyrimidin-4-yl]-5-{[2-(2H-1,2,3-triazol-2-yl)phenyl]carbonyl}octahydropyrrolo[3,4-c]pyrrole]: the Kb was 16 nM. Turning to `Cc1cc(N2CC3CN(C(=O)c4c(F)cccc4-n4nccn4)CC3C2)nc(C(F)(F)F)n1` (stereo not drawn) [Example 98, 2-{[2-Fluoro-6-(2H-1,2,3-triazol-2-yl)phenyl]carbonyl}-5-[6-methyl-2-(trifluoromethyl)pyrimidin-4-yl]octahydropyrrolo[3,4-c]pyrrole], the Kb was determined as 10 nM. The result for `Cc1cc(N2CC3CN(C(=O)c4ccc(F)cc4-n4nccn4)CC3C2)nc(C(F)(F)F)n1` (stereo not drawn) [Example 99, 2-{[4-Fluoro-2-(2H-1,2,3-triazol-2-yl)phenyl]carbonyl}-5-[6-methyl-2-(trifluoromethyl)pyrimidin-4-yl]octahydropyrrolo[3,4-c]pyrrole] reads 16 nM.

As to `Cc1cnc(C)c(N2CC3CN(C(=O)c4c(F)cccc4-n4nccn4)CC3C2)n1` (stereo not drawn) [Example 101, 2-(3,6-Dimethylpyrazin-2-yl)-5-{[2-fluoro-6-(2H-1,2,3-triazol-2-yl)phenyl]carbonyl}octahydropyrrolo[3,4-c]pyrrole], the Kb was 25 nM. The result for `Cc1ccc(-c2ncccn2)c(C(=O)N2CC3CN(c4nc(C)cc(C)n4)CC3C2)c1` (stereo not drawn) [Example 102, 2-(4,6-Dimethylpyrimidin-2-yl)-5-[(5-methyl-2-pyrimidin-2-ylphenyl)carbonyl]octahydropyrrolo[3,4-c]pyrrole] reads 6 nM. For `Cc1ccc(-c2ncccn2)c(C(=O)N2CC3CN(c4nc(C)cnc4C)CC3C2)c1` (stereo not drawn) [Example 103, 2-(3,6-Dimethylpyrazin-2-yl)-5-[(5-methyl-2-pyrimidin-2-ylphenyl)carbonyl]octahydropyrrolo[3,4-c]pyrrole], the Kb was found to be 32 nM. In the case of `Cc1cnc(C)c(N2CC3CN(C(=O)c4ccc(F)cc4-n4nccn4)CC3C2)n1` (stereo not drawn) [Example 104, 2-(3,6-Dimethylpyrazin-2-yl)-5-{[4-fluoro-2-(2H-1,2,3-triazol-2-yl)phenyl]carbonyl}octahydropyrrolo[3,4-c]pyrrole] it was 25 nM; in that of `CN(C)c1nc(N2CC3CN(C(=O)c4c(F)cccc4-n4nccn4)CC3C2)cc(C(F)(F)F)n1` (stereo not drawn) [Example 106, 4-[5-{[2-Fluoro-6-(2H-1,2,3-triazol-2-yl)phenyl]carbonyl}hexahydropyrrolo[3,4-c]pyrrol-2(1H)-yl]-N,N-dimethyl-6-(trifluoromethyl)pyrimidin-2-amine], 20 nM. In the case of `Cc1ccc(-c2ncccn2)c(C(=O)N2CC3CN(c4cc(C(F)(F)F)nc(N(C)C)n4)CC3C2)c1` (stereo not drawn) [Example 108, N,N-Dimethyl-4-{5-[(5-methyl-2-pyrimidin-2-ylphenyl)carbonyl]hexahydropyrrolo[3,4-c]pyrrol-2(1H)-yl}-6-(trifluoromethyl)pyrimidin-2-amine] it was 25 nM.

As for `CN(C)c1nc(N2CC3CN(C(=O)c4cc(F)ccc4-c4ncccn4)CC3C2)cc(C(F)(F)F)n1` (stereo not drawn) [Example 109, 4-{5-[(5-Fluoro-2-pyrimidin-2-ylphenyl)carbonyl]hexahydropyrrolo[3,4-c]pyrrol-2(1H)-yl}-N,N-dimethyl-6-(trifluoromethyl)pyrimidin-2-amine], the Kb was 25 nM. With `CN(C)c1nc(N2CC3CN(C(=O)c4cc(F)ccc4-n4nccn4)CC3C2)cc(C(F)(F)F)n1` (stereo not drawn) [Example 110, 4-[5-{[5-Fluoro-2-(2H-1,2,3-triazol-2-yl)phenyl]carbonyl}hexahydropyrrolo[3,4-c]pyrrol-2(1H)-yl]-N, N-dimethyl-6-(trifluoromethyl)pyrimidin-2-amine], the Kb amounted to 32 nM. In the case of `CN(C)c1nc(N2CC3CN(C(=O)c4ccc(F)cc4-n4nccn4)CC3C2)cc(C(F)(F)F)n1` (stereo not drawn) [Example 111, [5-(2-Dimethylamino-6-trifluoromethyl-pyrimidin-4-yl)-hexahydro-pyrrolo[3,4-c]pyrrol-2-yl]-(4-fluoro-2-[1,2,3]triazol-2-yl-phenyl)-methanone] it was 16 nM; in that of `Cc1ccc(-c2ncccn2)c(C(=O)N2CC3CN(c4cc(C)nc(C(F)(F)F)n4)CC3C2)c1` (stereo not drawn) [Example 112, 2-[(5-Methyl-2-pyrimidin-2-ylphenyl)carbonyl]-5-[6-methyl-2-(trifluoromethyl)pyrimidin-4-yl]octahydropyrrolo[3,4-c]pyrrole], 20 nM; in that of `O=C(c1cc(F)ccc1-c1ncccn1)N1CC2CN(c3nccc(-c4ccccc4)n3)CC2C1` (stereo not drawn) [Example 113, 2-[(5-Fluoro-2-pyrimidin-2-ylphenyl)carbonyl]-5-(4-phenylpyrimidin-2-yl)octahydropyrrolo[3,4-c]pyrrole], 63 nM. As for `CN(C)c1nc(N2CC3CN(C(=O)c4c(F)cccc4-c4ncccn4)CC3C2)cc(C(F)(F)F)n1` (stereo not drawn) [Example 116, 4-{5-[(2-Fluoro-6-pyrimidin-2-ylphenyl)carbonyl]hexahydropyrrolo[3,4-c]pyrrol-2(1H)-yl}-N,N-dimethyl-6-(trifluoromethyl)pyrimidin-2-amine], the Kb came out at 13 nM. The result for `Cc1cc(N2CC3CN(C(=O)c4c(F)cccc4-c4ncccn4)CC3C2)nc(C(F)(F)F)n1` (stereo not drawn) [Example 117, 2-[(2-Fluoro-6-pyrimidin-2-ylphenyl)carbonyl]-5-[6-methyl-2-(trifluoromethyl)pyrimidin-4-yl]octahydropyrrolo[3,4-c]pyrrole] reads 8 nM; that for `Cc1cc(N(C)C)nc(N2CC3CN(C(=O)c4ccccc4-n4nccn4)CC3C2)n1` (stereo not drawn) [Example 119, N,N,6-Trimethyl-2-[5-{[2-(2H-1,2,3-triazol-2-yl)phenyl]carbonyl}hexahydropyrrolo[3,4-c]pyrrol-2(1H)-yl]pyrimidin-4-amine], 13 nM.
